Our source for the TGI and GI50 values is PubChem BioAssay (NCI).

Common to all, as to test: NCI anticancer screen, dose series, 48 h
Assay [1] relates to SW-620 colon.
Assay [2] has as its system HT29 colon.
Assay [3] concerns UACC-257 melanoma.
For assay [4], the system named is OVCAR-3 ovarian.
In assay [5] the test system is A498 renal.
In assay [6] the test system is MALME-3M melanoma.
For assay [7], the system named is TK-10 renal.
In assay [8] the test system is CCRF-CEM leukemia.
The subject of assay [9] is SNB-75 CNS.
Assay [10] has as its system SF-268 CNS.

Where “and” joins values, the source holds several entries; their conditions need not be identical. Identical values can stand only once.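 Following 48 hours of exposure in 96-well plates, responses at five concentrations were used to interpolate endpoints linearly. Abbreviation: GI50, concentration required for 50% inhibition of growth. At the TGI there is no net growth.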

As for `CO[C@@]12[C@@H]3NC3CN1C1=C(C(=O)C(N)=C(C)C1=O)[C@@H]2COC(N)=O` (stereo not given in full), the TGI was found to be 7.01 µM in [1]; 5.24 µM in assay [2]; 2.14 µM in [3]; 3.07 µM in assay [4]; 1.21 µM in [5]; 2.21 µM in [6]. The TGI in [7] was 5.85 µM; in assay [8], more than 63.5 µM. Also, the GI50 in assay [4] was 1.07 µM; in assay [6], 0.511 µM; in assay [7] it was 1.68 µM; in assay [8] it was 0.296 µM.
With `CC1=NN(C(=O)c2ccccc2O)C(=O)/C1=C/c1cccc([N+](=O)[O-])c1`, the TGI in [1] is more than 100 µM; in assay [2], more than 100 µM; in assay [3], more than 100 µM; in [9], more than 100 µM; in assay [4], more than 47.5 µM; in assay [5], 0.801 µM. The TGI in [6], in assay [7], in [8] and in [10] was more than 100 µM each time.
Regarding `Nc1ccc(S(=O)(=O)Nc2cnc3c(Cl)cccc3n2)cc1`, the GI50 in [1] is 52.3 µM; in assay [2], more than 82.8 µM; in [3], more than 89.3 µM; in assay [9], 51.6 µM; in [7], more than 84.7 µM. The TGI was more than 678 µM in [1]; more than 750 µM in assay [2]; more than 750 µM in assay [3]; > 95 µM and 682 µM in [9]; 411 µM in [4]; 597 µM in assay [5]. Further, the TGI is more than 750 µM in assay [6], 589 µM in [7], more than 657 µM in assay [8] and 704 µM in [10].
As to `CC(=O)OC1CC2C(=O)C(=O)C1(C)C2(C)C` (stereo not given), the TGI in [1], in [2], in assay [3], in [9], in assay [4] and in assay [5] was more than 100 µM each time. For the same compound, the TGI in assay [6], in [7], in assay [8] and in assay [10] was more than 100 µM each time.
On to `COc1cc(NC(=O)Nc2cnc(Nc3ccc(N4CCOCC4)cc3)nc2Oc2cccc(OC)c2)cc(OC)c1`, for which the GI50 was 2.99 µM in [1]; 1.1 µM in assay [2]; 3.36 µM in [3]; 1.1 µM in [9]; 1.27 µM in assay [4]; 1.3 µM in assay [5]. For the same compound, the GI50 in [6] was 1.28 µM; in [7], 1.11 µM; in [8], more than 50 µM; in assay [10] it was 2.07 µM. For the same compound, the TGI in [1] is more than 50 µM; in assay [2], 3.15 µM; in assay [3] it was 16.8 µM; in assay [9], 4.69 µM; in [4], 3.25 µM; in [5], 2.97 µM. Further, the TGI is 3.82 µM in [6], 2.85 µM in [7], more than 50 µM in assay [8] and 12.3 µM in [10].
`S=c1nc(-c2ccnc(-c3nc(=S)[nH][nH]3)c2)[nH][nH]1`: the TGI in assay [1], in assay [2], in [3], in assay [4], in assay [5] and in assay [6] was more than 100 µM throughout. Besides, the TGI in assay [7], in [8] and in assay [10] was more than 100 µM in each case.
Turning to `CC1CC2(C)CC(=O)C1C1C(=O)N(CCN3CCCCC3)C(=O)C12` (stereo not given), the GI50 in [1], in [2], in [3], in [9], in assay [5] and in [6] was more than 100 µM in each case. The GI50 in assay [7], in assay [8] and in assay [10] was more than 100 µM throughout. Moreover, the TGI in [1], in assay [2], in [3], in assay [9], in assay [5] and in assay [6] was more than 100 µM in each case. Also, the TGI in [7], in assay [8] and in [10] was more than 100 µM each time.
Regarding `N=C1C=C(N)C(=O)c2[nH]c(=O)ccc21`, the TGI in [1] came to 6.7 µM; in [2] it was 4.5 µM; in assay [3] it was 16.6 µM; in assay [4], 2.96 µM; in [5] it was 6.52 µM; in [6], 6.19 µM. Further, the TGI was 24.9 µM in [7], 5.81 µM in assay [8] and 3.59 µM in assay [10].
Consider `C#CCN(Cc1ccc2nc(N)[nH]c(=O)c2c1)c1ccc(C(=O)NC(CCC(=O)O)C(=O)O)cc1` (stereo not given), for which the TGI in assay [1], in assay [2], in [3], in assay [4], in assay [5] and in assay [6] was more than 100 µM each time. Further, the TGI in [7], in [8] and in assay [10] was more than 100 µM each time.
`CNC(=O)CN(CC(N)=O)C(N)=O`: the TGI in assay [1], in assay [2], in [9], in assay [4], in [5] and in [6] was more than 100 µM in each case. Also, the TGI in [7], in assay [8] and in assay [10] was more than 100 µM throughout.
For the compound `O=C1C=CC2(C=C1)C[C@H](NC(=O)C(F)(F)F)C(=O)O2`, the TGI in assay [2] is more than 100 µM; in assay [3] it was more than 100 µM; in assay [9], more than 100 µM; in [4], more than 100 µM; in [5], more than 100 µM; in assay [6], 40.3 µM. Also, the figures for the TGI in assay [7], in [8] and in [10] were more than 100 µM, 50.9 µM and more than 100 µM, respectively.
